Source: paper PMC11308014 (ACS Omega, 2024)

Molecular target: T1, recombinant human dihydrofolate reductase (hDHFR) (Homo sapiens, UniProt P00374)
T1 construct: gene DHFR; commercial recombinant enzyme (R&D, Bio-Techne)
T1 sequence (P00374 1-187): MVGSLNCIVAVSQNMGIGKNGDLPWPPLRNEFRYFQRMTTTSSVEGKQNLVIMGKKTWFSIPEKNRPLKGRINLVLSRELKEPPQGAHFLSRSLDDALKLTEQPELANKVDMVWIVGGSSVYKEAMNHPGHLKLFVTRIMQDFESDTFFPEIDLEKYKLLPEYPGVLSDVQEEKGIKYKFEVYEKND
Assay: NADPH oxidation, absorbance at […] nm
Type: biochemical

IC50 | SMILES
10 nM | CN(Cc1cnc2nc(N)nc(N)c2n1)c1ccc(C(=O)NCCCC(=O)O)cc1 [compound 4, 4]
1210 nM | CN(Cc1cnc2nc(N)nc(N)c2n1)c1ccc(C(=O)NCCCCCC(=O)O)cc1 [compound 5, 5]
1010 nM | CN(Cc1cnc2nc(N)nc(N)c2n1)c1ccc(C(=O)NCCCCCCCC(=O)O)cc1 [compound 6, 6]
3030 nM | CN(Cc1cnc2nc(N)nc(N)c2n1)c1ccc(C(=O)NCCS(=O)(=O)O)cc1 [compound 7, 7]
